Data: patent US9539223B2, “Methods for treating bacterial infections” (Neoculi Pty Ltd., priority 2013, dated 2017)

Tests used:
[1] = Precipitation of NCL812 in assay media; type: physicochemical
S. pneumoniae = assay: MBC, pneumococcal isolates; type: cell-based, Streptococcus pneumoniae; settings: isolate WCH16
Experimental: [Micro-broth dilutions and 96-well trays are prepared by the following method: 90 μL of 4% LHB: CAMHB is aliquotted into all wells using a multichannel pipette. 90 μl of working antimicrobial stocks were no serial diluted down the tray by a 1:2 dilution. Negative broth controls and dilution control were taken into account when planning the set up of a 96-well tray.] 10 μL of bacterial suspension was then added to the appropriate wells in the 96 well tray. Appropriate positive (no antimicrobial), negative (no antimicrobial or bacteria) and negative dilution (a serial dilution control of antimicrobial and broth) controls were included in each assay. […] The MBC was determined by a 99.95% inhibition of S. pneumoniae, taking into account the dilution factor. MICs and MBCs were determined in quadruplicate and the mode was taken as the representative value. The MIC50, MIC90 and MIC range and MBC50, MBC90 and MBC range were determined according to CLSI standards. The MIC50 and MIC90, or MBC50 and MBC90, are defined by the lowest concentrations which, when all the MICs and MBCs of the isolates are arranged from lowest to highest, inhibited the 50th and 90th percentile of the total amount of isolates, respectively.

S. pneumoniae strain D39 = assay: MBC time kill studies (relative MBC at time points); type: cell-based, Streptococcus pneumoniae
Source text: MBC kill kinetics assays involved the preparation of three 96-well microtitre trays.

[2] = system: E. coli ATCC 25922 spheroplasts; assay: Activity against spheroplasts (colony forming units over 24 hours); type: cell-based, Escherichia coli
Experimental: E. coli ATCC 25922 was grown overnight on agar at 37° C. Two colonies from the overnight incubation were used to inoculate ˜20 ml of cation adjusted mueller hinton broth. Inoculated broth was incubated for 18 hours at 37° C. […] Formation of spheroplasts was checked using a phase contrast microscope.
Fifty microliters of DMSO only was added to the control test tube. Spheroplasts were incubated for 24 hours with 20 μl samples taken at 0, 2, 4, 6, 8 and 24 hours. Twenty microliter samples were serially diluted 1:10 and 10 ul samples of appropriate dilutions were spotted in triplicate onto brain heart infusion agar. Brain heart infusion agar was incubated at 37° C. for 48 hours and colonies were counted at 24 and 48 hours to determine the number of colony forming units.

MRSA isolates = assay: MBC test (CLSI), MRSA isolates; type: cell-based, Staphylococcus aureus
Experimental: There was an obvious reduction in the number of bacteria with increasing concentration, but growth was present compared with no growth for S. aureus. […] Each MBC test was performed in duplicate.

S. aureus KC01 = assay: Kill kinetics assay, S. aureus KC01; type: cell-based, Staphylococcus aureus
Experimental: (§1) S. aureus KC01 and E. faecalis USA01, not determined to be MRSA or VRE, respectively, were grown overnight on Columbia SBA at 37° C. A few colonies of bacteria were then suspended in CAMHB (cation-adjusted Mueller Hinton broth) and adjusted to OD600 of 0.08 to 0.10. The bacterial suspension was diluted 1:10. […] The tubes were incubated at 37° C., with constant shaking. In order to determine the number of viable bacteria present at various time points, a 100 μL aliquot was removed from each tube and diluted. Then, 100 μL of each dilution were spread onto colony count agar, in duplicate, and incubated for 48 h at 37° C. After 24 h the numbers of colonies present on each plate were counted and therefore the number of viable bacteria present in the original suspension enumerated. Plates were re-checked after 48 hours.

E. faecalis USA01 = assay: Kill kinetics assay, E. faecalis USA01; type: cell-based, Enterococcus faecalis
Experimental: as §1

[3] = system: methicillin-resistant and methicillin-susceptible Staphylococcus aureus; assay: Minimum bactericidal concentration, S. aureus clinical isolates
Source text: The MBC was defined as the lowest drug concentration at which 99.95% of the original inoculum was eliminated.

N=C(N/N=C/c1ccc(Cl)cc1)N/N=C/c1ccc(Cl)cc1 [NCL812, 1,2-bis[(E)-(4-chlorophenyl)methylideneamino]guanidine]
Precipitation of NCL812 observed at ([1]; MIC plates in Mueller Hinton II Broth without inoculum): ≥ 8 µg/mL
precipitation observed at ([1]; Mueller Hinton broth II (DNA and RNA synthesis assays), MIC […] μg/ml): 4 to 8 fold the MIC
MBC (S. pneumoniae): autolysis
consistent bactericidal effect elicited after (S. pneumoniae strain D39; from initial exposure, relative MBC over 48 hr): 6 h
decrease in MBC (S. pneumoniae strain D39; within 5 hrs): ~3 fold
concentration with significant decrease in colony forming units over time [2]: ≥ 32 µg/mL
MBC test: growth on Sheep Blood Agar (MRSA isolates; MRSA 1, 4 μg/ml): 0
MBC test: growth on Sheep Blood Agar (MRSA isolates; MRSA 1, 8 μg/ml): 0
MBC test: growth on Sheep Blood Agar (MRSA isolates; MRSA 1, 16 μg/ml): 0
MBC test: growth on Sheep Blood Agar (MRSA isolates; MRSA 1, 32 μg/ml): 0
MBC test: growth on Sheep Blood Agar (MRSA isolates; MRSA 3, 4 μg/ml): 0
MBC test: growth on Sheep Blood Agar (MRSA isolates; MRSA 3, 16 μg/ml): 0
MBC test: growth on Sheep Blood Agar (MRSA isolates; MRSA 3, 32 μg/ml): 0
MBC test: growth on Sheep Blood Agar (MRSA isolates; MRSA 4, 4 μg/ml): 0
MBC test: growth on Sheep Blood Agar (MRSA isolates; MRSA 4, 8 μg/ml): 0
MBC test: growth on Sheep Blood Agar (MRSA isolates; MRSA 4, 16 μg/ml): 0
MBC test: growth on Sheep Blood Agar (MRSA isolates; MRSA 4, 32 μg/ml): 0
MBC test: growth on Sheep Blood Agar (MRSA isolates; MRSA 5, 4 μg/ml): 0
MBC test: growth on Sheep Blood Agar (MRSA isolates; MRSA 5, 8 μg/ml): 0
MBC test: growth on Sheep Blood Agar (MRSA isolates; MRSA 5, 16 μg/ml): 0
MBC test: growth on Sheep Blood Agar (MRSA isolates; MRSA 5, 32 μg/ml): 0
MBC test: growth on Sheep Blood Agar (MRSA isolates; MRSA 6, 4 μg/ml): 0
MBC test: growth on Sheep Blood Agar (MRSA isolates; MRSA 6, 8 μg/ml): 0
MBC test: growth on Sheep Blood Agar (MRSA isolates; MRSA 6, 16 μg/ml): 0
MBC test: growth on Sheep Blood Agar (MRSA isolates; MRSA 6, 32 μg/ml): 0
MBC test: growth on Sheep Blood Agar (MRSA isolates; MRSA 7, 4 μg/ml): 0
MBC test: growth on Sheep Blood Agar (MRSA isolates; MRSA 7, 16 μg/ml): 0
MBC test: growth on Sheep Blood Agar (MRSA isolates; MRSA 7, 32 μg/ml): 0
MBC test: growth on Sheep Blood Agar (MRSA isolates; MRSA 8, 8 μg/ml): 0
MBC test: growth on Sheep Blood Agar (MRSA isolates; MRSA 8, 16 μg/ml): 0
MBC test: growth on Sheep Blood Agar (MRSA isolates; MRSA 8, 32 μg/ml): 0
MBC test: growth on Sheep Blood Agar (MRSA isolates; MRSA 9, 4 μg/ml): 0
MBC test: growth on Sheep Blood Agar (MRSA isolates; MRSA 9, 8 μg/ml): 0
MBC test: growth on Sheep Blood Agar (MRSA isolates; MRSA 9, 16 μg/ml): 0
MBC test: growth on Sheep Blood Agar (MRSA isolates; MRSA 9, 32 μg/ml): 0
MBC test: growth on Sheep Blood Agar (MRSA isolates; MRSA 10, 4 μg/ml): 0
MBC test: growth on Sheep Blood Agar (MRSA isolates; MRSA 10, 8 μg/ml): 0
MBC test: growth on Sheep Blood Agar (MRSA isolates; MRSA 10, 16 μg/ml): 0
MBC test: growth on Sheep Blood Agar (MRSA isolates; MRSA 10, 32 μg/ml): 0
MBC test: growth on Sheep Blood Agar (MRSA isolates; MRSA 11, 8 μg/ml): 0
MBC test: growth on Sheep Blood Agar (MRSA isolates; MRSA 11, 16 μg/ml): 0
MBC test: growth on Sheep Blood Agar (MRSA isolates; MRSA 11, 32 μg/ml): 0
MBC test: growth on Sheep Blood Agar (MRSA isolates; MRSA 12, 4 μg/ml): 0
MBC test: growth on Sheep Blood Agar (MRSA isolates; MRSA 12, 16 μg/ml): 0
MBC test: growth on Sheep Blood Agar (MRSA isolates; MRSA 12, 32 μg/ml): 0
MBC test: growth on Sheep Blood Agar (MRSA isolates; MRSA 13, 4 μg/ml): 0
MBC test: growth on Sheep Blood Agar (MRSA isolates; MRSA 13, 8 μg/ml): 0
MBC test: growth on Sheep Blood Agar (MRSA isolates; MRSA 13, 16 μg/ml): 0
MBC test: growth on Sheep Blood Agar (MRSA isolates; MRSA 13, 32 μg/ml): 0
MBC test: growth on Sheep Blood Agar (MRSA isolates; MRSA 14, 4 μg/ml): 0
MBC test: growth on Sheep Blood Agar (MRSA isolates; MRSA 14, 8 μg/ml): 0
MBC test: growth on Sheep Blood Agar (MRSA isolates; MRSA 14, 16 μg/ml): 0
MBC test: growth on Sheep Blood Agar (MRSA isolates; MRSA 14, 32 μg/ml): 0
MBC test: growth on Sheep Blood Agar (MRSA isolates; MRSA 516, 4 μg/ml): 0
MBC test: growth on Sheep Blood Agar (MRSA isolates; MRSA 516, 8 μg/ml): 0
MBC test: growth on Sheep Blood Agar (MRSA isolates; MRSA 516, 16 μg/ml): 0
MBC test: growth on Sheep Blood Agar (MRSA isolates; MRSA 516, 32 μg/ml): 0
MBC test: growth on Sheep Blood Agar (MRSA isolates; MRSA 570, 4 μg/ml): 0
MBC test: growth on Sheep Blood Agar (MRSA isolates; MRSA 570, 8 μg/ml): 0
MBC test: growth on Sheep Blood Agar (MRSA isolates; MRSA 570, 16 μg/ml): 0
MBC test: growth on Sheep Blood Agar (MRSA isolates; MRSA 570, 32 μg/ml): 0
MBC test: growth on Sheep Blood Agar (MRSA isolates; MRSA 580, 4 μg/ml): 0
MBC test: growth on Sheep Blood Agar (MRSA isolates; MRSA 580, 8 μg/ml): 0
MBC test: growth on Sheep Blood Agar (MRSA isolates; MRSA 580, 16 μg/ml): 0
MBC test: growth on Sheep Blood Agar (MRSA isolates; MRSA 580, 32 μg/ml): 0
MBC test: growth on Sheep Blood Agar (MRSA isolates; MRSA 606, 4 μg/ml): 0
MBC test: growth on Sheep Blood Agar (MRSA isolates; MRSA 606, 8 μg/ml): 0
MBC test: growth on Sheep Blood Agar (MRSA isolates; MRSA 606, 16 μg/ml): 0
MBC test: growth on Sheep Blood Agar (MRSA isolates; MRSA 606, 32 μg/ml): 0
MBC test: growth on Sheep Blood Agar (MRSA isolates; MRSA 610, 4 μg/ml): 0
MBC test: growth on Sheep Blood Agar (MRSA isolates; MRSA 610, 16 μg/ml): 0
MBC test: growth on Sheep Blood Agar (MRSA isolates; MRSA 610, 32 μg/ml): 0
reduction in bacterial numbers from initial numbers (S. aureus KC01; 2 h time point): ≥ 2.5 log10
reduction in bacterial numbers in comparison to the control (S. aureus KC01; 2 h time point): > 3 log10
reduction in bacterial numbers (S. aureus KC01; 6 h incubation): ≥ 2 log10
numbers of bacteria compared to the control (S. aureus KC01; after 24 h): not significantly different to the control
rise in bacterial numbers (E. faecalis USA01; 32 and 64 μg/mL, until the 6 h time point): ~1 log10
reduction in CFU/mL compared to the growth control (E. faecalis USA01; 2 h): 2 log10
reduction in CFU/mL compared to the original bacterial numbers (E. faecalis USA01; 2 h): greater than 1 log10
bacterial numbers compared to the growth control (E. faecalis USA01; 24 h, all concentrations): increased to almost the same level as the growth control
MBC range [3]: 4 to 16 µg/mL
isolates with MBC equivalent to the MIC [3]: 83.33%
